Laboratory results as given in ChEMBL document CHEMBL5725743, “Benzamide imidazopyrazine Btk inhibitors” (2018).

Target: Tyrosine-protein kinase BTK (Homo sapiens, UniProt Q06187)
Assay: Btk Enzyme Activity Assay: BTK enzymatic activity was determined with the LANCE (Lanthanide Chelate Excite) TR-FRET (Time-resolved fluorescence resonance energy transfer) assay. […] Phosphorylation reactions were allowed to proceed for 120 minutes. […] After 60 minutes incubation with detection reagents, reaction plates were read on a PerkinElmer EnVision plate reader using standard TR-FRET protocol. […] IC50 values were determined by 4 parameter robust fit of TR-FRET ratio values vs. (Log10)) compound concentrations.

Tyrosine-protein kinase BTK, sequence (Q06187 whole entry): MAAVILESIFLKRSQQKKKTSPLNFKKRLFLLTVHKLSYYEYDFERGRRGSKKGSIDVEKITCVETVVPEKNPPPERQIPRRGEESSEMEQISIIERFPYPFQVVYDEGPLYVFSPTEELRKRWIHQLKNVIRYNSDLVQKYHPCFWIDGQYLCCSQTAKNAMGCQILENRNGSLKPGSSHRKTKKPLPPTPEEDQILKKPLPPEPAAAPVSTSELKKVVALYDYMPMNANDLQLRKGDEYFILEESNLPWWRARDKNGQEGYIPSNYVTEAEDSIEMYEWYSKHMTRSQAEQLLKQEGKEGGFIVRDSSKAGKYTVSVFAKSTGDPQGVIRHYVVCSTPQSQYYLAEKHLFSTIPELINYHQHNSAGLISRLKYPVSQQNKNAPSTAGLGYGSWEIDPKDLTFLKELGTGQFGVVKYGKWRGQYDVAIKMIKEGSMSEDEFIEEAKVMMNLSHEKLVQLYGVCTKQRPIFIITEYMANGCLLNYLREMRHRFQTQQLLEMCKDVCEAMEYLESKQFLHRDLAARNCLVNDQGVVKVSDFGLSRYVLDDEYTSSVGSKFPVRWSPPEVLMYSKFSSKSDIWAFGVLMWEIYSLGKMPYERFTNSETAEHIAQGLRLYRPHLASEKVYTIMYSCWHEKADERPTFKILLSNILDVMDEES

Nc1nccn2c([C@@H]3CC[C@@H](CC(=O)O)C3)nc(-c3ccc(C(=O)Nc4cc(C(F)(F)F)ccn4)cc3)c12
IC50: 160 pM
